The source of these data is patent publication US20170135981A1, “Method for Suppressing Glucagon Secretion of an SGLT2 Inhibitor” (AstraZeneca AB, priority 2014, published 2017).

The structures appear in SMILES notation.

This assay relates to glucagon secretion. Nature of the assay: Plasma glucagon during a liquid meal tolerance test (MTT) at week 24, radioimmunoassay, randomized 24-week study. The class given is in vivo, human. Conditions: summary of Table 1, added to metformin. As for the experimental part:
At the beginning of a 4-week lead-in period, all patients were switched to the nearest metformin XR dose (1,500-2,000 mg/day) for the lead-in period and for the duration of the 24-week treatment period. Patients were then randomized to receive saxagliptin 5 mg/day and dapagliflozin 10 mg/day plus metformin (SAXA+DAPA+MET), saxagliptin 5 mg/day and placebo plus metformin (SAXA+MET), or dapagliflozin 10 mg/day and placebo plus metformin (DAPA+MET) for 24 weeks. Patients were prohibited from receiving other antidiabetic medications (except for open-label rescue medications) during the screening and treatment periods. Postprandial glucose (PPG) was assessed at baseline and week 24 following the administration of a liquid meal tolerance test (MTT, 360-375 kcal; protein, 14-28.2 g; fat, 10.5-14 g; carbohydrates 42-45 g; sugars as a component of carbohydrates, 16.8-22 g, investigation-site dependent). […] The mean change from baseline in the area under the curve from 0 to 180 minutes (AUC0-180 min) was calculated for glucagon obtained during the MTT. Plasma glucagon was measured by radioimmunoassay (LINCO Research, St. Charles, Mo.). AUC0-180 min was calculated based on the trapezoidal rule from model-based estimates of the mean at each time point, including observations prior to rescue. […]

For `CCOc1ccc(Cc2cc([C@@H]3O[C@H](CO)[C@@H](O)[C@H](O)[C@H]3O)ccc2Cl)cc1` [dapagliflozin], the “effect on glucagon levels (in words)” value is recorded as “increased compared to control”.
